Like-named read-outs stand apart in the source and are kept apart here.
Legend:
Bean Aphid (Aphis fabae) = assay: Bean aphid (Aphis fabae), plant-dip test on nasturtium plants; format: in vivo; conditions: 72 h, read-out: mortality of bean aphid in comparison with untreated controls
Experimental: (§1) The active compounds were formulated in a mixture of 50 vol.-% acetone:50 vol.-% water. A nonionic surfactant (Kinetic®) was included in the solution at a volume of 0.01% v/v.
(§2) In the following tests, the formulated solutions of the active compounds were diluted to an active ingredient concentration of 300 ppm and the diluted solutions were applied in the below mentioned tests.
11.3 Bean Aphid (Aphis fabae)
Nasturtium plants grown in Metro mix in the 1st leaf-pair stage (variety ‘Mixed Jewel’) were infested with approximately 2-30 laboratory-reared aphids by placing infested cut plants on top of the test plants. The cut plants were removed after 24 hr. Each plant was dipped into the test solution to provide complete coverage of the foliage, stem, protruding seed surface and surrounding cube surface and allowed to dry in the fume hood. The treated plants were kept at about 25° C. with continuous fluorescent light. Aphid mortality is determined after 3 days.

[1] = system: Green Peach Aphid (Myzus persicae), mixed life stages; assay: Green peach aphid (Myzus persicae), mixed life stages, leaf-dip test on bell pepper plants; format: in vivo; conditions: 120 h, read-out: mortality of green peach aphid in comparison with untreated controls
Experimental: as §1, §2
II.2 Green Peach Aphid (Myzus persicae), Mixed Life Stages
Bell pepper plants at the first true-leaf stage were infested prior to treatment by placing heavily infested leaves from the main aphid colony on top of the treatment plants. The aphids were allowed to transfer overnight to accomplish an infestation of 30-40 aphids per plant and the host leaves were removed. The infested leaves of the test plants were then dipped and agitated in the test solution for 3 seconds and allowed to dry in a fume hood. Test plants were maintained under fluorescent lighting in a 24-hr photoperiod at 25° C. and 20-40% relative humidity. Aphid mortality on the treated plants, relative to mortality on untreated check plants, was determined after 5 days.

[2] = system: Cotton Aphid (aphis gossypii), mixed life stages; assay: Cotton aphid (Aphis gossypii), mixed life stages, leaf-dip test on cotton plants; format: in vivo; conditions: 120 h, read-out: mortality of cotton aphid in comparison with untreated controls
Experimental: as §1, §2
II.1 Cotton Aphid (aphis gossypii), Mixed Life Stages
Cotton plants at the cotyledon stage were infested prior to treatment by placing a heavily infested leaf from the main aphid colony on top of each cotyledon. The aphids were allowed to transfer overnight and the host leaf was removed. The infested cotyledons were then dipped and agitated in the test solution for 3 seconds and allowed to dry in a fume hood. Test plants were maintained under fluorescent lighting in a 24-hr photoperiod at 25° C. and 20-40% relative humidity. Aphid mortality on the treated plants, relative to mortality on untreated check plants, was determined after 5 days.

[3] = 300 ppm, infested nasturtium plants dipped, after 3 days
[4] = 300 ppm, infested bell pepper leaves dipped 3 seconds, after 5 days
[5] = 300 ppm, infested cotton cotyledons dipped 3 seconds, after 5 days

Structure (SMILES) | mortality at 300 ppm (Bean Aphid (Aphis fabae); [3]) [%] | mortality at 300 ppm [1, 4] [%] | mortality at 300 ppm [2, 5] [%] | other results
CC(=O)OCc1ccn(S(=O)(=O)c2cccc(C)c2C#N)c1 [Example 44] | ≥ 86 | ≥ 86 | ≥ 86 | –
Cc1cccc(S(=O)(=O)NC(=O)Oc2ccccc2)c1C#N [Example 25] | – | – | – | mortality at 300 ppm (Bean Aphid (Aphis fabae)): ≥ 86%; mortality at 300 ppm [2]: ≥ 86%
N#Cc1c(OC(F)F)cccc1S(=O)(=O)N=S1CCCC1 [Example 39] | – | ≥ 86 | ≥ 86 | –
Cc1cccc(S(=O)(=O)N2CCCCC2=O)c1C#N [Example 19] | – | – | ≥ 86 | –
C#CCN(C(=O)C(F)(F)F)S(=O)(=O)c1cccc(C)c1C#N [Example 11] | ≥ 86 | ≥ 86 | ≥ 86 | –
C/C(=N\S(=O)(=O)c1cccc(C)c1C#N)C(C)(C)C [Example 37, 2-Cyano-3-methyl-N-(1,2,2-trimethyl-propylidene)-benzenesulfonamide] | ≥ 86 | ≥ 86 | ≥ 86 | –
CCO/C(=N\S(=O)(=O)c1cccc(C)c1C#N)NC(C)C [Example 29, N-(Isopropylamino-ethoxy-methylene)-2-cyano-3-methyl-benzenesulfonamide] | – | – | – | melting point: 139 to 142 °C
Cc1cccc(S(=O)(=O)/N=C/N(C)C)c1C#N [Example 35, 2-Cyano-3-methyl-N-dimethylaminomethylene-benzenesulfonamide] | ≥ 86 | ≥ 86 | ≥ 86 | –
C#CCN(C(=O)CC)S(=O)(=O)c1cccc(C)c1C#N [Example 8] | ≥ 86 | ≥ 86 | ≥ 86 | –
Cc1cccc(S(=O)(=O)N=S(C(C)C)C(C)C)c1C#N [Example 40] | – | ≥ 86 | ≥ 86 | –
CCN(C(=O)C(F)(F)F)S(=O)(=O)c1cccc(C)c1C#N [Example 6] | ≥ 86 | ≥ 86 | ≥ 86 | –
Cc1cccc(S(=O)(=O)NC(=O)OCc2ccccc2)c1C#N [Example 28, N-(Benzyloxycarbonyl)-2-cyano-3-methyl-benzenesulfonamide] | – | – | – | mortality at 300 ppm [1]: ≥ 86%; mortality at 300 ppm [2]: ≥ 86%
Cc1cccc(S(=O)(=O)n2cccc2)c1C#N [Example 41, 2-Methyl-6-(pyrrole-1-sulfonyl)-benzonitrile] | ≥ 86 | ≥ 86 | ≥ 86 | –
Cc1cccc(S(=O)(=O)n2ccnc2)c1C#N [Example 48, 2-Methyl-6-(imidazole-1-sulfonyl)-benzonitrile] | – | ≥ 86 | ≥ 86 | –
CCC(C)NC(=O)N(CC)S(=O)(=O)c1cccc(C)c1C#N (centres unmarked) [Example 24] | – | – | ≥ 86 | –
C=CC(=O)N(CC)S(=O)(=O)c1cccc(C)c1C#N [Example 10] | – | – | ≥ 86 | –
Cc1cccc(S(=O)(=O)n2cncn2)c1C#N [Example 47, 2-Methyl-6-([1.2.4]-triazole-1-sulfonyl)-benzonitrile] | – | – | – | melting point: 142 to 144 °C
COC(=NS(=O)(=O)c1cccc(C)c1C#N)OC [Example 32, 2-Cyano-N-dimethoxymethylene-3-methyl-benzenesulfonamide] | ≥ 86 | – | ≥ 86 | –
CCO/C(=N\S(=O)(=O)c1cccc(C)c1C#N)NC(C)(C)C [Example 30] | ≥ 86 | – | – | –
CCN(C(=O)c1ccccc1)S(=O)(=O)c1cccc(C)c1C#N [Example 17] | ≥ 86 | – | ≥ 86 | –
CCC(=O)NS(=O)(=O)c1cccc(C)c1C#N [Example 13] | ≥ 86 | ≥ 86 | ≥ 86 | –
N#Cc1c(OC(F)F)cccc1S(=O)(=O)n1cccc1 [Example 42] | ≥ 86 | ≥ 86 | ≥ 86 | –
Cc1cccc(S(=O)(=O)NC(=O)C(C)C)c1C#N [Example 14] | ≥ 86 | ≥ 86 | ≥ 86 | –

Structure (SMILES) | mortality at 300 ppm (Bean Aphid (Aphis fabae); [3]) [%] | mortality at 300 ppm [1, 4] [%] | mortality at 300 ppm [2, 5] [%] | other results
CCN(C(C)=O)S(=O)(=O)c1c(F)ccc(OC)c1C#N [Example 16] | – | ≥ 86 | ≥ 86 | –
Cc1cccc(S(=O)(=O)n2ccc(CO)c2)c1C#N [Example 43] | – | ≥ 86 | ≥ 86 | –
Cc1cccc(S(=O)(=O)N=S2CCCC2)c1C#N [Example 38, 2-Cyano-3-methyl-N-(tetrahydro-thiphophen-1-ylidene)benzenesulfonamide] | ≥ 86 | ≥ 86 | ≥ 86 | –
CC(=O)NS(=O)(=O)c1cccc(C)c1C#N [Example 1] | – | ≥ 86 | ≥ 86 | –
CC(=O)N(C(C)C)S(=O)(=O)c1cccc(C)c1C#N [Example 9] | – | ≥ 86 | ≥ 86 | –
Cc1cccc(S(=O)(=O)N(C(=O)C(F)(F)F)C(C)C)c1C#N [Example 12] | ≥ 86 | ≥ 86 | ≥ 86 | –
C=CCOC(=O)N(CC)S(=O)(=O)c1cccc(C)c1C#N [Example 27] | – | – | – | mortality at 300 ppm (Bean Aphid (Aphis fabae)): ≥ 86%; mortality at 300 ppm [1]: ≥ 86%; mortality at 300 ppm [2]: ≥ 86%
Cc1cccc(S(=O)(=O)n2cccn2)c1C#N [Example 46, 2-Methyl-6-(pyrazole-1-sulfonyl)-benzonitrile] | – | – | – | melting point: 99 to 104 °C
CO/C(C)=N\S(=O)(=O)c1cccc(OC(F)F)c1C#N [Example 36] | ≥ 86 | ≥ 86 | ≥ 86 | –
CCN(C(=O)NC(C)C)S(=O)(=O)c1cccc(C)c1C#N [Example 23] | ≥ 86 | ≥ 86 | ≥ 86 | –
Cc1cccc(S(=O)(=O)N2CCCC2=O)c1C#N [Example 18, 2-Methyl-6-(2-oxo-pyrrolidine-1-sulfonyl)benzonitrile] | ≥ 86 | – | ≥ 86 | –
CCOC(=NS(=O)(=O)c1cccc(OC(F)F)c1C#N)OCC [Example 33] | ≥ 86 | ≥ 86 | ≥ 86 | –
CCNC(=O)N(CC)S(=O)(=O)c1cccc(C)c1C#N [Example 21] | ≥ 86 | ≥ 86 | ≥ 86 | –
CCN(C(=O)Nc1ccccc1)S(=O)(=O)c1cccc(C)c1C#N [Example 22, N-Ethyl-N-(2-cyano-3-methyl-benzenesulfonyl)-N′-phenyl urea] | – | ≥ 86 | ≥ 86 | –
Cc1cccc(S(=O)(=O)n2ccc(Br)c2)c1C#N [Example 45, 2-Methyl-6-(3-bromo-pyrrole-1-sulfonyl)-benzonitrile] | – | ≥ 86 | ≥ 86 | –
C#CCN(C(C)=O)S(=O)(=O)c1cccc(C)c1C#N [Example 7] | ≥ 86 | ≥ 86 | ≥ 86 | –
CCN(C(=O)Oc1ccccc1)S(=O)(=O)c1cccc(C)c1C#N [Example 26] | – | – | – | mortality at 300 ppm (Bean Aphid (Aphis fabae)): ≥ 86%; mortality at 300 ppm [2]: ≥ 86%
CCOC(=NS(=O)(=O)c1cccc(C)c1C#N)OCC [Example 31] | ≥ 86 | ≥ 86 | ≥ 86 | –
COc1cccc(S(=O)(=O)N(OC)C(C)=O)c1C#N [Example 3] | – | ≥ 86 | ≥ 86 | –
CO/C(C)=N\S(=O)(=O)c1cccc(C)c1C#N [Example 34, 2-Cyano-N-(1-methoxyethylidene)-3-methyl-benzenesulfonamide] | – | ≥ 86 | ≥ 86 | –
CCN(C(C)=O)S(=O)(=O)c1cccc(OC(F)F)c1C#N [Example 15] | ≥ 86 | ≥ 86 | ≥ 86 | –
CCN(C(C)=O)S(=O)(=O)c1cccc(C)c1C#N [Example 2, N-Acetyl-N-ethyl-2-cyano-3-methyl-benzene-sulfonamide] | ≥ 86 | ≥ 86 | ≥ 86 | –
CCC(=O)N(CC)S(=O)(=O)c1cccc(C)c1C#N [Example 5] | ≥ 86 | ≥ 86 | ≥ 86 | –

Reference: US20080300280A1, “Cyanobenzene Compounds for Combating Animal Pests” (priority 2005, published 2008)
